Activity calls are given as the source filed them. No cut-off for these calls is given here.
Key:
[1] = target: Autoinducer 2-binding periplasmic protein LuxP (Vibrio harveyi) (UniProt P54300); experiment: Binding affinity to LuxP in Vibrio harveyi BB120 assessed as activation of quorum sensing system after 6 hrs by bioluminescence assay; details: Vibrio campbellii ATCC BAA-1116
[2] = target: Autoinducer 2-binding periplasmic protein LuxP (Vibrio harveyi) (UniProt P54300); experiment: Binding affinity to LuxP in Vibrio harveyi MM32 assessed as activation of quorum sensing system at 1.5 to 100 uM after 5 hrs by bioluminescence assay in absence of exogenous synthetic DPD
[3] = target: Autoinducer 2-binding periplasmic protein LuxP (Vibrio harveyi) (UniProt P54300); experiment: (§1) Binding affinity to LuxP in Vibrio harveyi MM32 assessed as activation of quorum sensing system after 5 hrs by bioluminescence assay in presence of exogenous synthetic DPD
[4] = target: Autoinducer 2-binding periplasmic protein LuxP (Vibrio harveyi, UniProt P54300); experiment: as §1
Autoinducer 2-binding periplasmic protein LuxP, sequence (P54300 whole entry): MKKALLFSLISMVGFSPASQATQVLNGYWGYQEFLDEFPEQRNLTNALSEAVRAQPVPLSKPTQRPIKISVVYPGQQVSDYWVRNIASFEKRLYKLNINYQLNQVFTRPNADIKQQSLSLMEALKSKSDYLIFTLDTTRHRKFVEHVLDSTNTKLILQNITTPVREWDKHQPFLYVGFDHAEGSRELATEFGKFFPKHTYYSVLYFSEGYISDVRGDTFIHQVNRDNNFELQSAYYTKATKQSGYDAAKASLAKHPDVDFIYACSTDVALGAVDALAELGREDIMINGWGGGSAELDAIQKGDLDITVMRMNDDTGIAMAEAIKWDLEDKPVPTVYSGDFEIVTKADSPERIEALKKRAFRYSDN

[5] = test system: Vibrio harveyi; experiment: Toxicity in Vibrio harveyi MM32 at >5 uM; type: organism-based; details: in vivo

Autoinducer 2-binding periplasmic protein LuxP (Vibrio harveyi), sequence (P54300 whole entry): as above

Activity [1]: Dose-dependent effect
Activity [2]: inactive
Activity [3]: Dose-dependent effect
EC50 [4]: 20 µM
SMILES: O=C(Cc1ccc2ccccc2c1)C(=O)[C@@H](O)CO
Activity [5]: Toxic

— ChEMBL document CHEMBL3608305, “Synergistic activation of quorum sensing in Vibrio harveyi” (Bioorg Med Chem Lett, 2015)
